In experiment [1] the target is T1, 5-hydroxytryptamine receptor 2C (Rattus norvegicus, UniProt P08909).
T1 sequence (P08909 whole entry): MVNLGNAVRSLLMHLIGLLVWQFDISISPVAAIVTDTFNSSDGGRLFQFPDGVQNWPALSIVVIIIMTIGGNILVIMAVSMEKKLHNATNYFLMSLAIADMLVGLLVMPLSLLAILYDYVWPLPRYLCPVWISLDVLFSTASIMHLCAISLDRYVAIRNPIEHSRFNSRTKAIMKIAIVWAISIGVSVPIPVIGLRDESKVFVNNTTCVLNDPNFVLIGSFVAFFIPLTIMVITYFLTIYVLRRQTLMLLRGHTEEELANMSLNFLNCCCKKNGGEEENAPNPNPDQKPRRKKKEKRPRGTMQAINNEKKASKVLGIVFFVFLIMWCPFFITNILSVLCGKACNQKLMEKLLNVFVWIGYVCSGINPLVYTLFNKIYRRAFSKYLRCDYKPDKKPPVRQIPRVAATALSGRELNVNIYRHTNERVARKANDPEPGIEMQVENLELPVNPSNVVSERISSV

The target in experiment [2] is 5-hydroxytryptamine receptor 2A (Rattus norvegicus, UniProt P14842).

This note sets out measurements from BindingDB's records for PubMed 1347569 (Stanford University, 1992).

Structures can show the parent of a compound that is named as a salt.

Chain of 5-hydroxytryptamine receptor 2A (P14842 whole entry): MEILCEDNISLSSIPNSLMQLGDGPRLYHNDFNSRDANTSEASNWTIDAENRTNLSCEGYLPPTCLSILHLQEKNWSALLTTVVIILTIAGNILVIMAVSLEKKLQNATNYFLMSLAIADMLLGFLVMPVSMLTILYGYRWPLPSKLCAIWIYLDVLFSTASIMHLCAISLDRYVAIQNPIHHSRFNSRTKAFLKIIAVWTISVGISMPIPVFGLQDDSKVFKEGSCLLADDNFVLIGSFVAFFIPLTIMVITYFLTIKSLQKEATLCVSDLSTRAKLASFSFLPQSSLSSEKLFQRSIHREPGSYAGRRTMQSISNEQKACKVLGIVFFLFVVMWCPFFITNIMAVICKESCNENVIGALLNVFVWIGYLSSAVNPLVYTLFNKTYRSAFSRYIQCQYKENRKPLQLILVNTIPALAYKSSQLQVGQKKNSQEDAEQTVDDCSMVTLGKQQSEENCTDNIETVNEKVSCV

Turning to `O=c1[nH]c2ccccc2n1C1CCN(CCCC(c2ccc(F)cc2)c2ccc(F)cc2)CC1` [1-(1-(4,4-bis(4-fluorophenyl)butyl)piperidin-4-yl)-1H-benzo[d]imidazol-2(3H)-one], the results for the Ki in experiment [1] and in experiment [2] were over 10 µM and 0.0079 µM, respectively. For `Clc1cncc(N2CCNCC2)n1` [L-630,571], the Ki (commonly the equilibrium dissociation constant of an inhibitor or competing ligand from its target) was 0.255 µM in experiment [1] and over 10 µM in experiment [2]. In experiment [1], `CCN(CC)CCNC(=O)c1cc(Cl)c(N)cc1OC` [4-amino-5-chloro-N-[2-(diethylamino)ethyl]-2-methoxy-benzamide;hydrochloride] registered a Ki of over 10 µM. As to `CN1CCN(C2=Nc3cscc3C(=CC#N)c3cscc32)CC1` [NSC_3086153], the Ki in experiment [1] is 0.062 µM; in experiment [2] it was 0.0398 µM. On to `CCNC(=O)N1CCN(CCCC(c2ccc(F)cc2)c2ccc(F)cc2)CC1`, for which the affinity in experiment [1] corresponds to a Ki of 1.15 µM. As to `c1ccc2nc(N3CCNCC3)ccc2c1` [2-Piperazin-1-yl-quinoline (Quipazine)], the inhibition constant (Ki) worked out at 0.336 µM in experiment [1] and 0.613 µM in experiment [2].

Consider `CC1CCN(CCCC(=O)c2ccc(F)cc2)CC1` [CAS_3575-80-2], for which the affinity in experiment [1] corresponds to a Ki of 1.34 µM.

In experiment [1], `CN1CCN(CC/C=C2/c3ccccc3Sc3ccc(S(=O)(=O)N(C)C)cc32)CC1` [MLS000028463] returned a Ki of 1.55 µM. In the case of `O=C(c1ccc(F)cc1)C1CCN(CCn2c(=O)[nH]c3ccccc3c2=O)CC1` [3-(2-{4-[(4-fluorophenyl)carbonyl]piperidin-1-yl}ethyl)-1,2,3,4-tetrahydroquinazoline-2,4-dione], the Ki in experiment [1] was 0.0285 µM.

In the case of `CN1CCN(C2=Nc3cc(F)ccc3Cc3ccccc32)CC1`, the Ki in experiment [1] was 0.0182 µM; in experiment [2], 0.0079 µM. On the same counts, the results for `O=c1[nH]c2ccccc2n1CCCN1CCC(n2c(=O)[nH]c3cc(Cl)ccc32)CC1` are over 10 µM and 0.294 µM. In the case of `CN1CCN(C2=Cc3cc(Cl)ccc3C(=CC#N)c3ccccc32)CC1` [CAS_79781-95-6], the values for the Ki in experiment [1] and in experiment [2] were 0.023 µM and 0.00079 µM, respectively.

Molecule `O=C1CC2(CCCC2)CC(=O)N1CCCCN1CCN(c2nsc3ccccc23)CC1` [TIOSPERONE] showed a Ki in experiment [1] of 0.0097 µM. For `CN1CCc2cc(Cl)c(O)cc2[C@@H](c2ccccc2)C1` [SCH 23390,R(+)], the Ki in experiment [1] was determined as 0.0134 µM; in experiment [2], 0.0199 µM. In the case of `OCCN1CCN(CC/C=C2/c3ccccc3Sc3ccc(C(F)(F)F)cc32)CC1` [(cis) 2-{4-[3-(2-Trifluoromethyl-thioxanthen-9-ylidene)-propyl]-piperazin-1-yl}-ethanol(Flupentixol)], the inhibition constant Ki was found to be 0.102 µM in experiment [1] and 0.002 µM in experiment [2].

Consider `CN1CCCCC1CCN1c2ccccc2Sc2ccc([S+](C)[O-])cc21` (stereo unspecified), for which the figures for the Ki in experiment [1] and in experiment [2] were 0.079 µM and 0.0063 µM, respectively.
